≈ marks a conversion by molar mass, not a printed value. Calls of active or inactive are those of the source. The rule behind the calls is not given here.
What was measured:
[1] = system: Klebsiella pneumoniae; test: Antibacterial activity against extended-spectrum-beta-lactamase-producing Klebsiella pneumoniae isolate; format: functional
[2] = system: Klebsiella pneumoniae; test: Effect on extended-spectrum-beta-lactamase-producing Klebsiella pneumoniae P10045 infected in sc dosed CF1 mouse with high-density bacterial colonization administered daily for 9 days assessed as promotion of persistent bacterial overgrowth by measuring stool bacterial count; format: functional, organism-based
[3] = system: Klebsiella pneumoniae; test: Effect on extended-spectrum-beta-lactamase-producing Klebsiella pneumoniae P62 infected in sc dosed CF1 mouse with high-density bacterial colonization administered daily for 9 days assessed as promotion of persistent bacterial overgrowth by measuring stool bacterial count; format: functional, organism-based
[4] = system: Klebsiella pneumoniae; test: Antibacterial activity against extended-spectrum-beta-lactamase-producing Klebsiella pneumoniae P62 by broth dilution method; format: functional
[5] = system: Klebsiella pneumoniae; test: Antibacterial activity against extended-spectrum-beta-lactamase-producing Klebsiella pneumoniae P10045 by broth dilution method; format: functional
[6] = system: Klebsiella pneumoniae; test: Antibacterial activity against extended-spectrum-beta-lactamase-producing Klebsiella pneumoniae P10045 infected in sc dosed CF1 mouse with high-density bacterial colonization administered daily for 9 days assessed as suppression of stool bacterial count; format: functional, organism-based
[7] = system: Klebsiella pneumoniae; test: Antibacterial activity against extended-spectrum-beta-lactamase-producing Klebsiella pneumoniae P62 infected in sc dosed CF1 mouse with high-density bacterial colonization administered daily for 9 days assessed as suppression of stool bacterial count; format: functional, organism-based

CO/N=C(\C(=O)N[C@@H]1C(=O)N2C(C(=O)O)=C(CSc3nc(=O)c(O)nn3C)CS[C@H]12)c1csc(N)n1 [CEFTRIAXONE] was tested, and the MIC [1] was 4 µg/mL (≈ 7.21 µM), the Activity [2] was “Active” and the Activity [3] was “Active”. It also gave an MIC [4] of 4 µg/mL (≈ 7.21 µM) and an MIC [5] of 78 µg/mL (≈ 141 µM).
With C[C@@H](O)[C@H]1C(=O)N2C(C(=O)O)=C(S[C@@H]3CN[C@H](C(=O)Nc4cccc(C(=O)O)c4)C3)[C@H](C)[C@H]12 [ERTAPENEM] the MIC [1] was < 0.25 µg/mL, the MIC [4] was < 0.25 µg/mL and the MIC [5] was 0.25 µg/mL (≈ 0.526 µM). For the same molecule, the Activity [6] was “Active” and the Activity [7] was “Active”.

Source: ChEMBL document CHEMBL1155773, “Effects of imipenem-cilastatin, ertapenem, piperacillin-tazobactam, and ceftriaxone treatments on persistence of intestinal colonization by extended-spectrum-beta-lactamase-producing Klebsiella pneumoniae strains in mice” (2007)
